Laboratory results: patent publication US20240027450A1, “COMPOSITIONS AND METHODS FOR […]-COV-2 (COVID-19) AND FOR […]-COV-2-[…] IMM[…]” (QIAGEN SCIENCES LLC, priority 2020, published 2024)

Test system: T cells in whole blood samples
Assay: IFN-γ release (QuantiFERON SARS-CoV-2 tubes, ELISA) in whole blood of vaccinated donors, Example 2
Assay type: cell-based, human

For phytohemagglutinin [Mit], the “IFN-γ, Nil-subtracted” value (Donor 1, Day 4 after first dose of vaccine) was 7.19 IU/mL, the “IFN-γ, Nil-subtracted” value (Donor 1, Day 11 after first dose of vaccine) was greater than 10 IU/mL and the “IFN-γ, Nil-subtracted” value (Donor 2, Day 4 after first dose of vaccine) was 5.74 IU/mL. For the same substance, the “IFN-γ, Nil-subtracted” value (Donor 2, Day 11 after first dose of vaccine) was greater than 10 IU/mL, the “IFN-γ, Nil-subtracted” value (Donor 3, Day 4 after first dose of vaccine) was 7.07 IU/mL and the “IFN-γ, Nil-subtracted” value (Donor 3, Day 11 after first dose of vaccine) was greater than 10 IU/mL. For the same substance, the “IFN-γ, Nil-subtracted” value (Donor 4, Day 4 after first dose of vaccine) was 5.78 IU/mL, the “IFN-γ, Nil-subtracted” value (Donor 4, Day 11 after first dose of vaccine) was greater than 10 IU/mL and the “IFN-γ, Nil-subtracted” value (Donor 5, Day 4 after first dose of vaccine) was 7.13 IU/mL. For the same substance, the “IFN-γ, Nil-subtracted” value (Donor 5, Day 11 after first dose of vaccine) was greater than 10 IU/mL, the “IFN-γ, Nil-subtracted” value (Donor 6, Day 4 after first dose of vaccine) was 6.59 IU/mL and the “IFN-γ, Nil-subtracted” value (Donor 6, Day 11 after first dose of vaccine) was greater than 10 IU/mL. The “IFN-γ, Nil-subtracted” value (Donor 7, Day 4 after first dose of vaccine, […]) was 3.01 IU/mL, the “IFN-γ, Nil-subtracted” value (Donor 7, Day 11 after first dose of vaccine) was greater than 10 IU/mL and the “IFN-γ, Nil-subtracted” value (Donor 8, Day 7 after first dose of vaccine) was 7.13 IU/mL. The “IFN-γ, Nil-subtracted” value (Donor 9, Day 0 after first dose of vaccine) was 6.19 IU/mL, the “IFN-γ, Nil-subtracted” value (Donor 9, Day 7 after first dose of vaccine) was greater than 10 IU/mL and the “IFN-γ, Nil-subtracted” value (Donor 10, Day 7 (Second Dose)) was greater than 10 IU/mL. For the same substance, the “IFN-γ, Nil-subtracted” value (Donor 10, Day 22 (First-dose)) was greater than 10 IU/mL.
